Where no end group is shown, it is not given here. [ ]: non-standard residue; d: D form. Nle = CCCC[C@H](N)C(=O)O
Assays:
Assay in all cases: REVEAL binding assay
Conditions in all cases: score as percentage of the signal generated by the positive control peptide
HLA-A2 = HLA-A2 (Homo sapiens, UniProt P04439, D140Y/D185E/D98H/E176V/E277Q/G131W/G231S/I119V/I121R/I166T/I218V/N151K/N90K/P208A/P217A/Q86G/Q94H/R138H/R169H)
Outline: (§1)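 Synthetic nonamer peptides were tested for their ability to bind and stabilize MHC class I–peptide complexes, detected by the native conformation of the complex. Each peptide is scored relative to a positive-control known T-cell epitope.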

HLA-A11 = HLA-A11 (Homo sapiens, UniProt P04439, A114D/F33Y/S129P)
Outline: as §1

HLA-B27 = HLA-B27 (Homo sapiens, UniProt P01889, D138H/D201E/E176V/E204Q/G107R/H137Y/K202T/N104T/N87E/Q56L/Q94K/R106L/R155S/R180L/S101D/S121N/S48T/Y140D/Y33H/Y91C)
Outline: as §1

HLA-B7 = HLA-B7 (Homo sapiens, UniProt P01889)
Outline: as §1

HLA-A3 = HLA-A3 (Homo sapiens, UniProt P04439)
Outline: as §1

HLA-A24 = test system: HLA-A24
HLA-A1 = test system: HLA-A1
HLA-B8 = test system: HLA-B8
HLA-B40 = test system: HLA-B40
Outline: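 Read-out: presence or absence of natively folded MHC–peptide complex. Values expressed as % of positive-control epitope signal per allele, plus putative pass/fail; weaker-binding intermediate control included.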

HLA-A29 = test system: HLA-A29
From the text: (§2) HLA-A1, HLA-A2, HLA-A3, HLA-A11, HLA-A24, HLA-A29, HLA-B7, HLA-B8, HLA-B14, HLA-B15, HLA-B27, HLA-B35, HLA-B40.
(§3) The REVEAL™ binding assay determined the ability of each candidate peptide to bind to one or more MHC class I alleles and stabilizing the MHC-peptide complex. […] Detection is based on the presence or absence of the native conformation of the MHC-peptide complex. Each peptide is given a score relative to the positive control peptide, which is a known T cell epitope.

HLA-B14 = test system: HLA-B14
From the text: as §2, §3

HLA-B15 = test system: HLA-B15
HLA-B35 = test system: HLA-B35
From the text: as §2, §3

Chain of HLA-A3 (P04439 25-299): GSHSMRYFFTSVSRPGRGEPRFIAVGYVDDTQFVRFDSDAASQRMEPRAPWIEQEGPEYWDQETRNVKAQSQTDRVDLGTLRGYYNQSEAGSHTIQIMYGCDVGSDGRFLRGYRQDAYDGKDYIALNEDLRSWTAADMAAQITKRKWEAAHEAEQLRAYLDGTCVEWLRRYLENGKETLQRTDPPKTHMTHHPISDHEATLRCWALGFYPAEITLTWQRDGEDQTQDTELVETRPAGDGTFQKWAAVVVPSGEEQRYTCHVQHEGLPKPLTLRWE
Chain of HLA-A3 (P61769 21-119, further chain): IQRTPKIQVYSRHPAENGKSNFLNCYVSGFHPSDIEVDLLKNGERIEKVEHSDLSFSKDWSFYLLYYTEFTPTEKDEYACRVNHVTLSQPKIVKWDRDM
Chain of HLA-B7 (P61769 21-119): as the sequence (P61769 21-119, further chain) above
Chain of HLA-B7 (P01889 25-299): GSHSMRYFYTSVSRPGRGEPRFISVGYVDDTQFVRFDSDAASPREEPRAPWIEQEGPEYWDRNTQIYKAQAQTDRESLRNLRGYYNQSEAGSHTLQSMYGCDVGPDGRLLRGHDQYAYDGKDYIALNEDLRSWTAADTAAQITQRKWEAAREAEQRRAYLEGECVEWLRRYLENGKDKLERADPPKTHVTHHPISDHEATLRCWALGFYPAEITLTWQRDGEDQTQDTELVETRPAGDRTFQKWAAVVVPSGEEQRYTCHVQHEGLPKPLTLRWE

| Substance | REVEAL binding score, HLA-type A2 (HLA-A2) | REVEAL binding score, HLA-type A11 (HLA-A11) | REVEAL binding score, HLA-type B27 (HLA-B27) | REVEAL binding score, HLA-type B7 (HLA-B7) | REVEAL binding score, HLA-type A3 (HLA-A3) | REVEAL binding score, HLA-type A24 (HLA-A24) | REVEAL binding score, HLA-type A1 (HLA-A1) | REVEAL binding score, HLA-type B8 (HLA-B8) | REVEAL binding score, HLA-type B40 (HLA-B40) | REVEAL binding score, HLA-type A29 (HLA-A29) | REVEAL binding score, HLA-type B14 (HLA-B14) | REVEAL binding score, HLA-type B15 (HLA-B15) | REVEAL binding score, HLA-type B35 (HLA-B35) |
| --- | --- | --- | --- | --- | --- | --- | --- | --- | --- | --- | --- | --- | --- |
| ITFSIYLIV | 43.08% | 5.31% | 4.79% | 4.32% | 1.66% | 0.77% | 9.89% | 11.38% | 78.84% | 24.10% | 1.53% | 6.68% | 12.30% |
| IVGGVYLLP | 6.78% | 3.10% | 0.68% | 24.16% | 1.88% | 0.30% | 22.11% | 11.48% | 19.83% | 12.38% | 1.65% | 15.00% | 2.68% |
| KVIDTLTCG | 19.13% | 8.91% | 0.63% | 0.57% | 4.27% | 0.57% | 15.77% | 13.17% | 32.89% | 13.16% | 0.18% | 10.13% | 2.74% |
| LGKVIDTLT | 4.05% | 12.95% | 2.90% | 0.94% | 7.39% | 0.70% | 22.08% | 17.96% | 44.92% | 15.99% | 0.43% | 7.14% | 5.11% |
| LGRVIETLT | 5.90% | 20.27% | 2.54% | 2.66% | 7.40% | 0.97% | 16.33% | 14.74% | 62.07% | 12.31% | 0.28% | 16.38% | 3.43% |
| LMGYIPLVG | 31.94% | 2.13% | 1.44% | 0.41% | 2.53% | 0.51% | 14.17% | 20.75% | 33.55% | 24.26% | 0.08% | 9.43% | 0.81% |
| LPAVGAPIG | 5.60% | 4.95% | 0.49% | 8.12% | 3.02% | 0.61% | 20.57% | 15.87% | 39.31% | 25.32% | 0.12% | 10.10% | 1.06% |
| L[Nle]GYIPLIG | 49.48% | 2.48% | 0.73% | 0.89% | 3.98% | 0.71% | 14.33% | 17.29% | 57.46% | 25.94% | 0.15% | 14.60% | 2.85% |
| MGYIPLVGA | 10.71% | 4.79% | 0.83% | 0.80% | 3.40% | 0.35% | 11.34% | 14.88% | 40.78% | 19.54% | 0.73% | 8.85% | 0.85% |
| NIPGSTYSL | 5.71% | 3.20% | 2.29% | 4.80% | 3.98% | 8.50% | 8.41% | 7.66% | 37.01% | 31.99% | 0.46% | 4.46% | 4.71% |
| NLGKVIDTL | 7.70% | 12.81% | 2.64% | 2.64% | 6.41% | 1.16% | 18.14% | 16.86% | 53.82% | 10.67% | 0.57% | 12.59% | 4.39% |
| NLGRVIETL | 11.97% | 4.53% | 1.66% | 1.47% | 2.86% | 0.86% | 18.24% | 15.58% | 38.91% | 16.44% | 0.07% | 16.29% | 2.82% |
| NLPGCSFSI | 47.28% | 3.47% | 3.37% | 1.54% | 8.15% | 85.91% | 13.15% | 9.89% | 60.68% | 22.34% | 0.36% | 3.11% | 5.31% |
| NYATGNLPG | 3.94% | 4.69% | 2.33% | 0.51% | 8.65% | 1.13% | 11.16% | 9.96% | 75.28% | 34.26% | 0.79% | 6.06% | 6.44% |
| PRLGVRATR | 6.85% | 2.73% | 0.86% | 42.64% | 3.63% | 0.97% | 17.77% | 11.46% | 14.52% | 13.35% | 0.14% | 10.04% | 1.65% |

— patent US9550811B2, “Peptide scaffold design” (BIONOR IMMUNO AS, priority 2010, dated 2017)
